# From article PMC7698448, “Design, Synthesis, and Biological Evaluation of Pyridazinones Containing the (2-Fluorophenyl) Piperazine Moiety as Selective MAO-B Inhibitors” (Molecules, 2020)
# “Also recorded” adds a separate entry of the source.
# What was measured:
# [1] = target: T1, MAO-B (Homo sapiens, UniProt P27338); test: Recombinant human MAO-B inhibition assay (benzylamine substrate); details: for SI (IC50 of MAO-A/IC50 of MAO-B): selectivity index for MAO-B; for Times more potent on MAO-B than lazabemide: ratio of MAO-B potency versus reference reversible inhibitor lazabemide
# T1 sequence (P27338 1-520): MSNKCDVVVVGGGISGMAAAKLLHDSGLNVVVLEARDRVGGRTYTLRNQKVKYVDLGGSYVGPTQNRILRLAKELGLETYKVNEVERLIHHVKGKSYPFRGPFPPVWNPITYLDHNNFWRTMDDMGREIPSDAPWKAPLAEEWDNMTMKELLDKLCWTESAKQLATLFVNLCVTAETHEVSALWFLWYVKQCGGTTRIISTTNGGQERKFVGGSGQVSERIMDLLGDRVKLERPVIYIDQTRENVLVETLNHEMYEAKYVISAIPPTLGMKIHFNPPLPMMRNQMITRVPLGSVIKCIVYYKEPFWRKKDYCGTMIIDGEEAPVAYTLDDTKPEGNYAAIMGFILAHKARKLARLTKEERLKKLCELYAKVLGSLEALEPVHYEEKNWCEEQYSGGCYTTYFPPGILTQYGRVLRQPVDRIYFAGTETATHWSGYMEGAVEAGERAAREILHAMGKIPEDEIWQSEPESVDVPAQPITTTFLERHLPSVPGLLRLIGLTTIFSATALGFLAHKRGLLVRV
# Experimental: Recombinant human MAO-A and MAO-B inhibitory activities of were continuously assayed as described previously [37], using kynuramine (0.06 mM) and benzylamine (0.3 mM), respectively. […] MAO-A and MAO-B inhibitory activities were measured after preincubating enzymes and inhibitors for 15 min. Enzymes and chemicals were obtained from Sigma-Aldrich (St. Louis, MO, USA).
# (§2) Kinetic experiments were carried out at five substrate and three inhibitor concentrations [38].
# [2] = target: T2, recombinant human MAO-A (Homo sapiens, UniProt P21397); test: Recombinant human MAO-A inhibition assay (kynuramine substrate); format: biochemical; details: kynuramine 0.06 mM, 15 min preincubation; for remaining activity at 10 µM: inhibitor 10 µM, read-out: Residual Activity (%) MAO-A (10 µM)
# T2 construct: purchased Sigma-Aldrich
# T2 sequence (P21397 1-527): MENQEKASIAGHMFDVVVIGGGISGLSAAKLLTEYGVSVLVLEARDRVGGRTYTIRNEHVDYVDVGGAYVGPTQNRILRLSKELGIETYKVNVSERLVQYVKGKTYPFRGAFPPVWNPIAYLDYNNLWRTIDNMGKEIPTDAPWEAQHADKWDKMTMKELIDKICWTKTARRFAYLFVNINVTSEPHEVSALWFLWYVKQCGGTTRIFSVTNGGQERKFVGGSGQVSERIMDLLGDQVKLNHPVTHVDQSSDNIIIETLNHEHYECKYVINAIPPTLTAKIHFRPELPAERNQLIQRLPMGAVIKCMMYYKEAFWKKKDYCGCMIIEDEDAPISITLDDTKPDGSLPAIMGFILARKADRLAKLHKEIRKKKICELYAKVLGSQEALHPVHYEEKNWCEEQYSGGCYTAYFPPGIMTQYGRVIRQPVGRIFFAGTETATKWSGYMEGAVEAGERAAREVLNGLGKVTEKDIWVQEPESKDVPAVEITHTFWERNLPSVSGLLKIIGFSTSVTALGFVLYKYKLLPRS
# Experimental: Recombinant human MAO-A and MAO-B inhibitory activities of were continuously assayed as described previously [37], using kynuramine (0.06 mM) and benzylamine (0.3 mM), respectively. […] MAO-A and MAO-B inhibitory activities were measured after preincubating enzymes and inhibitors for 15 min.
# The inhibitory activities of the twelve compounds against MAO-A and MAO-B were first investigated at an inhibitor concentration of 10 µM. For the compounds showing residual activities of <50%, IC50 values for MAO-A and MAO-B inhibitions were determined. Kinetic experiments were carried out at five substrate and three inhibitor concentrations [38].
# [3] = target: T1, MAO-B; test: Kinetics of MAO-B inhibition (Lineweaver-Burk and secondary plots); format: biochemical; parameters: purchased Sigma-Aldrich
# Experimental: as §2
# [4] = target: T1, MAO-B; test: Reversibility of MAO-B inhibition by dialysis; format: biochemical; parameters: purchased Sigma-Aldrich; details: for Relative MAO-B activity of dialyzed sample (AD) / Relative MAO-B activity of undialyzed sample (AU): 30 min preincubation, T3 0.080 µM, T6 0.020 µM, lazabemide 0.30 µM; for Relative MAO-B activity of dialyzed sample (AD): after dialysis; for Reversibility of MAO-B inhibition (recovery by dialysis): pargyline 0.060 µM
# Experimental: Reversibility studies were performed using a dialysis-based method.
# The reversibilities of T3 and T6 inhibitions were investigated by dialysis after preincubating them with MAO-B for 30 min, as previously described. […] Reversibilities were determined using the relative activities of undialyzed (AU) and dialyzed (AD) samples [40].
# [5] = tested on: L929 cells; test: MTS cytotoxicity assay in L929 cells; format: cell-based, mouse; details: 48 h
# Experimental: (§1) An MTS (5-(3-carboxymethoxyphenyl)-2-(4,5-dimethyl-thiazolyl)-3-(4-sulfophenyl)) tetrazolium assay was used to evaluate the cytotoxic activities of T3 and T6 by measuring formazan absorbance. MTS is converted to formazan by mitochondria in metabolically active cells via NAD(P)H-dependent dehydrogenase enzymes. L929 cells (a mouse fibroblast cell line) were used to evaluate the cytotoxicities. Briefly, cells (5 × 10^4 cells/well) were seeded into 96-well plates in DMEM containing 10% fetal bovine serum and 1% penicillin/streptomycin, and incubated for 24 h. After supernatants were removed, the cells were treated with the compounds dissolved in DMSO (at 1, 10, 20, 50, or 100 µM) in triplicate for 48 h at 37 °C in a 5% CO2 atmosphere. MTS reagent (Uptima, Interchim, Montluçon, France) was then added to each well and incubated for 3 h. Absorbances were measured at 490 nm using a microplate reader (BioTek, Winooski, VT, USA), and cell viabilities were calculated as percentage of untreated controls.
# [6] = MTS cytotoxicity assay in L929 cells; format: cell-based, mouse; details: mouse, L929 cells (mouse fibroblast cell line), 48 h treatment
# Experimental: as §1
Compound,IC50 [1],remaining activity at 10 µM [2],SI (IC50 of MAO-A/IC50 of MAO-B) [1],IC50 [2],melting point,also measured
Cc1ccc(C=NNC(=O)Cn2nc(N3CCN(c4ccccc4F)CC3)ccc2=O)cc1 [Compound T2],0.1 ± 0.035 µM,24.6 ± 2.86%,42.9,4.29 ± 0.12 µM,,
O=C(Cn1nc(N2CCN(c3ccccc3F)CC2)ccc1=O)NN=Cc1ccc(Cl)cc1 [Compound T4],0.099 ± 0.0069 µM,75.2 ± 4.7%,,,,
O=C(Cn1nc(N2CCN(c3ccccc3F)CC2)ccc1=O)NN=Cc1ccc(Br)cc1 [Compound T5],1.68 ± 0.11 µM,84 ± 0.68%,,,,
CN(C)c1ccc(C=NNC(=O)Cn2nc(N3CCN(c4ccccc4F)CC3)ccc2=O)cc1 [Compound T7],0.87 ± 0.056 µM,25.4 ± 6.92%,,4.43 ± 0.29 µM,,
"O=C(Cn1nc(N2CCN(c3ccccc3F)CC2)ccc1=O)NN=Cc1cccc(Br)c1 [Compound T8, 6-[4-(2-Fluorophenyl)piperazine-1-yl]-3(2H)-pyridazinone-2-acetyl-2-(3-bromobenzal)hydrazon]",2.67 ± 0.051 µM,73.3 ± 2.86%,,,207 to 208 °C,
"O=C(Cn1nc(N2CCN(c3ccccc3F)CC2)ccc1=O)NN=Cc1ccc(F)cc1 [Compound T10, 6-[4-(2-Fluorophenyl)piperazine-1-yl]-3(2H)-pyridazinone-2-acetyl-2-(4-florobenzal)hydrazon]",35.3 ± 0.39 µM,33.7 ± 4.7%,0.21,7.35 ± 0.059 µM,178 to 180 °C,
"COc1ccc(C=NNC(=O)Cn2nc(N3CCN(c4ccccc4F)CC3)ccc2=O)cc1 [Compound T11, 6-[4-(2-Fluorophenyl)piperazine-1-yl]-3(2H)-pyridazinone-2-acetyl-2-(4-methoxybenzal)hydrazon]",6.86 ± 0.37 µM,70.4 ± 8.5%,,,148 to 150 °C,

# More lines, main results first:
IC50 [1],remaining activity at 10 µM [2],SI (IC50 of MAO-A/IC50 of MAO-B) [1],IC50 [2],melting point,Compound,also measured
7.68 ± 0.14 µM,96.6 ± 1.2%,,,,O=C(Cn1nc(N2CCN(c3ccccc3F)CC2)ccc1=O)NN=Cc1ccccc1 [Compound T1],
0.039 ± 0.0028 µM,24.6 ± 0.97%,107.4,4.19 ± 0.27 µM,,O=C(Cn1nc(N2CCN(c3ccccc3F)CC2)ccc1=O)NN=Cc1ccccc1Cl [Compound T3],"Type of MAO-B inhibition [3]: competitive inhibitors; Relative MAO-B activity of dialyzed sample (AD) [4]: 79.4%; Relative MAO-B activity of undialyzed sample (AU) [4]: 22.2%; Reversibility of MAO-B inhibition (recovery by dialysis) [4]: reversibly inhibit MAO-B; also recorded: reversible; Times more potent on MAO-B than lazabemide [1]: 3; Cytotoxic effect on L929 cells at 1, 10, or 20 µM ([5]; 1, 10, or 20 µM): no significant death; Cytotoxic effect on L929 cells at 50 and 100 µM ([5]; 50 and 100 µM): complete cell death; IC50 at 48 h [6]: 27.1 µM"
0.013 ± 0.0016 µM,20.7 ± 0.62%,120.8,1.57 ± 0.8 µM,,COc1ccccc1C=NNC(=O)Cn1nc(N2CCN(c3ccccc3F)CC2)ccc1=O [Compound T6],"Type of MAO-B inhibition [3]: competitive inhibitors; Relative MAO-B activity of dialyzed sample (AD) [4]: 79.0%; Relative MAO-B activity of undialyzed sample (AU) [4]: 36.9%; Reversibility of MAO-B inhibition (recovery by dialysis) [4]: reversibly inhibit MAO-B; also recorded: reversible; Times more potent on MAO-B than lazabemide [1]: 11; MAO-B potency relative to pargyline ([1]; versus reference irreversible inhibitor pargyline): twice as potent; Cytotoxic effect on L929 cells at any dose ([5]; 1, 10, 20, 50, or 100 µM): did not have a cytotoxic effect; IC50 at 48 h [6]: > 100 µM"
0.2 ± 0.0017 µM,35.2 ± 0.56%,33.8,6.76 ± 0.46 µM,225 to 226 °C,"O=C(Cn1nc(N2CCN(c3ccccc3F)CC2)ccc1=O)NN=Cc1ccccc1F [Compound T9, 6-[4-(2-Fluorophenyl)piperazine-1-yl]-3(2H)-pyridazinone-2-acetyl-2-(2-fluorobenzal)hydrazon]",
0.15 ± 0.021 µM,61.8 ± 1.65%,,,244 to 245 °C,"Cc1ccccc1C=NNC(=O)Cn1nc(N2CCN(c3ccccc3F)CC2)ccc1=O [Compound T12, 6-[4-(2-Fluorophenyl)piperazine-1-yl]-3(2H)-pyridazinone-2-acetyl-2-(2-methylbenzal)hydrazon]",
